Measurements: the NIST ThermoML archive (doi:10.1007/s10765-006-0079-5)
± gives the expanded uncertainty stated by the source.

Conditions: Liquid, Pulse-echo method

CCCCCCCCC [nonane]
speed of sound (293.15 K, 100 kPa): 1226.4 ± 5 m/s | speed of sound (293.15 K, 10000 kPa): 1288 ± 5.2 m/s | speed of sound (293.15 K, 20000 kPa): 1344.8 ± 5.4 m/s | speed of sound (293.15 K, 30000 kPa): 1396.9 ± 5.6 m/s | speed of sound (293.15 K, 40000 kPa): 1445.1 ± 5.8 m/s | speed of sound (293.15 K, 50000 kPa): 1490.1 ± 6 m/s | speed of sound (293.15 K, 60000 kPa): 1532.5 ± 6.2 m/s | speed of sound (293.15 K, 70000 kPa): 1572.5 ± 6.4 m/s | speed of sound (293.15 K, 80000 kPa): 1610.6 ± 6.5 m/s | speed of sound (293.15 K, 90000 kPa): 1646.9 ± 6.7 m/s | speed of sound (293.15 K, 100000 kPa): 1681.6 ± 6.8 m/s | speed of sound (313.15 K, 100 kPa): 1146.2 ± 4.7 m/s | speed of sound (313.15 K, 10000 kPa): 1212.8 ± 4.9 m/s | speed of sound (313.15 K, 20000 kPa): 1274.2 ± 5.2 m/s | speed of sound (313.15 K, 30000 kPa): 1329.8 ± 5.4 m/s | speed of sound (313.15 K, 40000 kPa): 1380.9 ± 5.6 m/s | speed of sound (313.15 K, 50000 kPa): 1428.3 ± 5.8 m/s | speed of sound (313.15 K, 60000 kPa): 1472.7 ± 6 m/s | speed of sound (313.15 K, 70000 kPa): 1514.7 ± 6.1 m/s | speed of sound (313.15 K, 80000 kPa): 1554.4 ± 6.3 m/s | speed of sound (313.15 K, 90000 kPa): 1592 ± 6.4 m/s | speed of sound (313.15 K, 100000 kPa): 1628 ± 6.6 m/s | speed of sound (333.15 K, 100 kPa): 1068.2 ± 4.3 m/s | speed of sound (333.15 K, 10000 kPa): 1140.9 ± 4.6 m/s | speed of sound (333.15 K, 20000 kPa): 1206.9 ± 4.9 m/s | speed of sound (333.15 K, 30000 kPa): 1266.2 ± 5.1 m/s | speed of sound (333.15 K, 50000 kPa): 1369.8 ± 5.5 m/s | speed of sound (333.15 K, 60000 kPa): 1416.3 ± 5.7 m/s | speed of sound (333.15 K, 70000 kPa): 1460.1 ± 5.9 m/s | speed of sound (333.15 K, 80000 kPa): 1501.3 ± 6.1 m/s | speed of sound (333.15 K, 90000 kPa): 1540.3 ± 6.2 m/s | speed of sound (333.15 K, 100000 kPa): 1577.4 ± 6.4 m/s | speed of sound (353.15 K, 100 kPa): 992.62 ± 4 m/s | speed of sound (353.15 K, 10000 kPa): 1072.6 ± 4.4 m/s | speed of sound (353.15 K, 20000 kPa): 1142.6 ± 4.6 m/s | speed of sound (353.15 K, 30000 kPa): 1205.6 ± 4.9 m/s | speed of sound (353.15 K, 40000 kPa): 1262.5 ± 5.1 m/s | speed of sound (353.15 K, 50000 kPa): 1314.6 ± 5.3 m/s | speed of sound (353.15 K, 60000 kPa): 1363.2 ± 5.5 m/s | speed of sound (353.15 K, 70000 kPa): 1408.5 ± 5.7 m/s | speed of sound (353.15 K, 80000 kPa): 1451.3 ± 5.9 m/s | speed of sound (353.15 K, 90000 kPa): 1491.7 ± 6 m/s | speed of sound (353.15 K, 100000 kPa): 1529.8 ± 6.2 m/s | speed of sound (373.15 K, 100 kPa): 922.16 ± 3.8 m/s | speed of sound (373.15 K, 10000 kPa): 1005 ± 4.1 m/s | speed of sound (373.15 K, 20000 kPa): 1081.3 ± 4.4 m/s | speed of sound (373.15 K, 30000 kPa): 1148.1 ± 4.7 m/s | speed of sound (373.15 K, 40000 kPa): 1208 ± 4.9 m/s | speed of sound (373.15 K, 50000 kPa): 1262.5 ± 5.1 m/s | speed of sound (373.15 K, 60000 kPa): 1313.1 ± 5.3 m/s | speed of sound (373.15 K, 70000 kPa): 1360.1 ± 5.5 m/s | speed of sound (373.15 K, 80000 kPa): 1404.3 ± 5.7 m/s | speed of sound (373.15 K, 90000 kPa): 1446.1 ± 5.8 m/s | speed of sound (373.15 K, 100000 kPa): 1485.5 ± 6 m/s | speed of sound (393.15 K, 10000 kPa): 946.87 ± 3.9 m/s | speed of sound (393.15 K, 20000 kPa): 1022.9 ± 4.2 m/s | speed of sound (393.15 K, 30000 kPa): 1093.7 ± 4.4 m/s | speed of sound (393.15 K, 40000 kPa): 1156.6 ± 4.7 m/s | speed of sound (393.15 K, 50000 kPa): 1213.6 ± 4.9 m/s | speed of sound (393.15 K, 60000 kPa): 1266.1 ± 5.1 m/s | speed of sound (393.15 K, 70000 kPa): 1314.7 ± 5.3 m/s | speed of sound (393.15 K, 80000 kPa): 1360.4 ± 5.5 m/s | speed of sound (393.15 K, 90000 kPa): 1403.3 ± 5.7 m/s | speed of sound (393.15 K, 100000 kPa): 1443.7 ± 5.8 m/s
